Here are results for 32 compounds from PubChem BioAssay AID488967 (The Scripps Research Institute Molecular Screening Center, 2010).

Each structure is given as a SMILES string. Activity calls are given as the source filed them. No rule for the calls is given here.

This test relates to SARS coronavirus 3C-like protease (3CLpro, nsp5). Kind of test: blockers of SARS 3CLpro activity – biochemical, fluorescence, assay provider results, late-stage follow-up (AID 488967). Particulars: recombinant 3CLpro, fluorogenic peptide cleavage; at 100 µM; stronger effect = higher value.

The term inhibition denotes the drop in the measured response relative to a control, in per cent.

Regarding `CC(C)(C)NC(=O)C(c1cncnc1)N(C(=O)c1cnc[nH]1)c1ccc(C(C)(C)C)cc1` (configuration not stated), the inhibition was 66.8%.
Consider `CCC(C)c1ccc(N(C(=O)c2ccco2)[C@H](C(=O)NC(C)(C)C)c2cccnc2)cc1` (some centres not stated), for which the inhibition is 93.1%.
Turning to `O=C(Nc1ccc(N(Cc2ccsc2)C(=O)Cn2nnc3ccccc32)cc1)C1CCC1`, the inhibition is 85.7%.
Turning to `CC(C)(C)NC(=O)C(c1cccc(F)c1)N(C(=O)Cn1nnc2ccccc21)C12CC3CC(CC(C3)C1)C2` (configuration not stated), the inhibition was 10.6% (inactive).
Under `CC(=O)Nc1ccc(N(C(=O)Cn2nnc3ccccc32)C(C(=O)NC(C)(C)C)c2cccc(F)c2)cc1` (configuration not stated) stands 90.2%; under `O=C(Nc1ccc(N(Cc2ccsc2)C(=O)Cn2nnc3ccccc32)cc1)c1cccs1`, 32.9% (inactive); under `CC(C)(C)NC(=O)C(c1cccnc1)N(C(=O)c1ccc[nH]1)c1ccc(C(C)(C)C)cc1` (configuration not stated), 18.6% (inactive).
On to `CC(C)(C)NC(=O)C(c1ccsc1)N(C(=O)Cn1nnc2ccccc21)c1ccc(NC(=O)c2cccs2)cc1` (configuration not stated), for which the inhibition was 14.6% (inactive).
Consider `CC(C)COC(=O)Nc1ccc(N(C(=O)Cn2nnc3ccccc32)C(C(=O)NC(C)(C)C)c2ccsc2)cc1` (configuration not stated), for which the inhibition is 0.9% (inactive).
On to `CC(C)(C)NC(=O)C(c1cccnc1)N(C(=O)c1ccc(Cl)o1)c1ccc(C(C)(C)C)cc1` (configuration not stated), for which the inhibition is 89.6%.
Next, `O=C(Nc1ccc(N(Cc2ccsc2)C(=O)Cn2nnc3ccccc32)cc1)C1CC1`: 82.8%; `CC(C)(C)NC(=O)C(c1cccnc1)N(C(=O)Cc1cnc[nH]1)c1ccc(C(C)(C)C)cc1` (configuration not stated): 15.7% (inactive).
As for `CC(C)(C)NC(=O)C(c1cccc(F)c1)N(C(=O)Cn1nnc2ccccc21)C1CC2CCC1C2` (configuration not stated), the inhibition was 32.7% (inactive).
Under `CC(C)COC(=O)Nc1ccc(N(Cc2ccsc2)C(=O)Cn2nnc3ccccc32)cc1` stands 10.3% (inactive).
Next, `CC(C)(C)NC(=O)C(c1ccsc1)N(C(=O)Cn1nnc2ccccc21)c1ccc(NC(=O)c2ccno2)cc1` (configuration not stated): 59.4%.
Under `CC(C)(C)NC(=O)C(c1ccsc1)N(C(=O)Cn1nnc2ccccc21)c1ccc(NC(=O)C(C)(C)C)cc1` (configuration not stated) stands 77.4%.
Turning to `CC(C)(C)NC(=O)C(c1cccnc1)N(C(=O)c1ncco1)c1ccc(C(C)(C)C)cc1` (configuration not stated), the inhibition is 51.6%.
As to `CC(C)(C)NC(=O)C(c1ccsc1)N(C(=O)Cn1nnc2ccccc21)c1ccc(NC(=O)C2CC2)cc1` (configuration not stated), the inhibition was 85.7%.
Next, `CC(C)C(=O)Nc1ccc(N(Cc2ccsc2)C(=O)Cn2nnc3ccccc32)cc1`: 83.6%; `CC(C)(C)NC(=O)C(c1ccsc1)N(C(=O)Cn1nnc2ccccc21)c1ccc(NC(=O)C2CCCCC2)cc1` (configuration not stated): 84.9%; `O=C(NCc1ccccc1)C(c1cccc(F)c1)N(C(=O)Cn1nnc2ccccc21)C1CC2CCC1C2` (configuration not stated): 42.5% (inactive).
For the compound `CC(=O)Nc1ccc(N(C(=O)Cn2nnc3ccccc32)C(C(=O)NCc2ccccc2)c2cccc(F)c2)cc1` (configuration not stated), the inhibition was 84.7%.
Under `CC(C)(C)NC(=O)[C@@H](c1cccnc1)N(C(=O)c1ccco1)c1ccc(C(C)(C)C)cc1` stands 98.8%; under `CC(C)(C)NC(=O)C(c1cncnc1)N(C(=O)c1cnco1)c1ccc(C(C)(C)C)cc1` (configuration not stated), 36.2% (inactive); under `CC(C)(C)NC(=O)C(c1ccsc1)N(C(=O)Cn1nnc2ccccc21)c1ccc(NC(=O)c2ccccc2)cc1` (configuration not stated), -7% (inactive).
Regarding `CC(C)(C)NC(=O)[C@H](c1cccnc1)N(C(=O)c1ccco1)c1ccc(C(C)(C)C)cc1`, the inhibition is 25% (inactive).
Under `O=C(NCc1ccccc1)C(c1cccc(F)c1)N(C(=O)Cn1nnc2ccccc21)C12CC3CC(CC(C3)C1)C2` (configuration not stated) stands 11.1% (inactive); under `O=C(Nc1ccc(N(Cc2ccsc2)C(=O)Cn2nnc3ccccc32)cc1)c1ccccc1`, 18.2% (inactive).
Next, `CC(C)(C)NC(=O)C(c1ccsc1)N(C(=O)Cn1nnc2ccccc21)c1ccc(NC(=O)C2CCC2)cc1` (configuration not stated): 22.7% (inactive); `CC(C)(C)C(=O)Nc1ccc(N(Cc2ccsc2)C(=O)Cn2nnc3ccccc32)cc1`: 86.3%.
Under `O=C(Nc1ccc(N(Cc2ccsc2)C(=O)Cn2nnc3ccccc32)cc1)C1CCCCC1` stands 22.1% (inactive); under `CCC(C)c1ccc(N(C(=O)c2ccco2)[C@@H](C(=O)NC(C)(C)C)c2cccnc2)cc1` (some centres not stated), -3.8% (inactive).
